Measurements published in the supplement of paper PMC10307832.

Columns and labels:
Assay in all cases: relative viability (nuclei count vs DMSO), 5 days (fraction); higher = more cells survive
Vismodegib + Lapatinib = compound: CS(=O)(=O)c1ccc(C(=O)Nc2ccc(Cl)c(-c3ccccn3)c2)c(Cl)c1 [Vismodegib] + CS(=O)(=O)CCNCc1ccc(-c2ccc3ncnc(Nc4ccc(OCc5cccc(F)c5)c(Cl)c4)c3c2)o1 [Lapatinib] (partner 2 µM)
Method in brief: (§1)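 Nuclei were stained with Hoechst during a one-step fixation (final 0.05% Triton X-100, 1% formaldehyde, 1 ug/ml Hoechst) carried out 5 days after dosing, then counted on 4× images. The cells, lung cancer lines in 1536-well plates, had been dosed by pin tool the day after seeding with one drug alone or a fixed anchor-drug dose plus five library-drug doses (not always all listed) in √10 steps. Relative viability is the nuclei count in treated wells divided by that in vehicle wells, and each value is the median of duplicate plates.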

Ruxolitinib + Phenformin = compound: N#CC[C@H](C1CCCC1)n1cc(-c2ncnc3[nH]ccc23)cn1 [Ruxolitinib] + N=C(N)NC(=N)NCCc1ccccc1 [Phenformin] (partner 250 µM)
Method in brief: as §1

Ruxolitinib + Olaparib = compound: N#CC[C@H](C1CCCC1)n1cc(-c2ncnc3[nH]ccc23)cn1 [Ruxolitinib] + O=C(c1cc(Cc2n[nH]c(=O)c3ccccc23)ccc1F)N1CCN(C(=O)C2CC2)CC1 [Olaparib] (partner 8 µM)
Method in brief: as §1

VE-821 + Phenformin = compound: CS(=O)(=O)c1ccc(-c2cnc(N)c(C(=O)Nc3ccccc3)n2)cc1 [VE-821] + N=C(N)NC(=N)NCCc1ccccc1 [Phenformin] (partner 250 µM)
Method in brief: as §1

Cell Line	relative viability (Vismodegib + Lapatinib; first compound 0.08 µM)	relative viability (Vismodegib + Lapatinib; first compound 0.253 µM)	relative viability (Vismodegib + Lapatinib; first compound 0.8 µM)	relative viability (Vismodegib + Lapatinib; first compound 2.53 µM)	relative viability (Vismodegib + Lapatinib; first compound 8 µM)	relative viability (Ruxolitinib + Phenformin; first compound 0.08 µM)	relative viability (Ruxolitinib + Phenformin; first compound 0.253 µM)	relative viability (Ruxolitinib + Phenformin; first compound 0.8 µM)	relative viability (Ruxolitinib + Phenformin; first compound 2.53 µM)	relative viability (Ruxolitinib + Phenformin; first compound 8 µM)	relative viability (Ruxolitinib + Olaparib; first compound 0.08 µM)	relative viability (Ruxolitinib + Olaparib; first compound 0.253 µM)	relative viability (Ruxolitinib + Olaparib; first compound 0.8 µM)	relative viability (Ruxolitinib + Olaparib; first compound 2.53 µM)	relative viability (Ruxolitinib + Olaparib; first compound 8 µM)	relative viability (VE-821 + Phenformin; first compound 0.08 µM)	relative viability (VE-821 + Phenformin; first compound 0.253 µM)	relative viability (VE-821 + Phenformin; first compound 0.8 µM)	relative viability (VE-821 + Phenformin; first compound 2.53 µM)	relative viability (VE-821 + Phenformin; first compound 8 µM)
LK-2	0.916	0.941	0.893	0.896	0.72	0.337	0.499	0.359	0.292	0.692	0.553	0.701	0.893	0.724	0.52	0.639	0.366	0.459	0.925	0.374
LOU-NH91	0.757	0.798	0.663	0.745	0.841	–	0.708	0.765	0.63	0.747	0.757	0.895	0.97	0.853	0.813	0.742	0.701	0.693	0.706	0.734
LU99A	0.928	1.04	1.04	1.04	0.979	1.06	0.931	0.801	0.782	0.755	0.272	0.277	0.268	0.237	0.224	0.947	0.896	0.807	0.873	0.478
LXF-289	0.912	0.894	0.916	0.962	0.875	0.509	0.492	0.538	0.491	0.497	0.994	1.1	1.13	1.03	0.924	0.541	0.53	0.532	0.527	0.562
NCI-H23	1.1	1.08	1.09	1.11	1.09	0.892	0.807	0.804	0.67	0.727	0.371	0.369	0.311	0.242	0.17	0.812	0.743	0.785	0.844	0.479
NCI-H322M	0.631	0.646	0.519	0.565	0.572	0.777	0.768	0.936	0.962	1.02	0.752	0.852	0.79	0.809	1.05	0.504	0.766	0.741	0.577	0.364
NCI-H358	0.471	0.505	0.422	0.518	0.461	0.291	0.271	0.319	0.189	0.26	0.494	0.544	0.534	0.495	0.442	0.386	0.311	0.352	0.373	0.281
NCI-H460	0.903	0.887	1.2	0.823	1.03	0.484	0.54	0.549	0.443	0.445	–	0.463	0.411	0.344	0.375	0.574	0.482	0.398	0.205	0.0832
NCI-H520	0.856	0.921	0.977	0.844	1.01	0.565	0.323	0.717	0.483	0.58	0.298	0.375	0.366	0.343	0.284	0.575	0.613	0.375	0.818	0.381
NCI-H596	0.983	1.07	0.941	1.1	1.09	0.975	0.793	0.801	0.706	0.836	0.761	0.71	0.844	0.696	0.751	0.78	0.635	0.735	0.871	0.631
NCI-H647	0.99	0.998	1.17	1.01	1.12	0.481	0.517	0.502	0.481	0.531	0.578	0.687	0.596	0.475	0.31	0.556	0.532	0.454	0.533	0.211
NCI-H650	0.967	0.695	0.623	0.841	0.899	–	0.449	0.519	0.351	0.342	0.379	0.436	0.392	0.384	0.314	0.448	0.429	0.45	0.494	0.468
NCI-H661	0.464	0.488	0.534	0.483	0.493	0.287	0.256	0.303	0.29	0.263	0.771	0.81	0.735	0.808	0.614	0.282	0.255	0.272	0.286	0.311
NCI-H727	0.814	0.653	0.585	0.826	0.874	0.505	0.55	0.576	0.599	0.848	0.715	0.8	0.603	0.826	0.645	0.503	0.552	0.547	0.537	0.385
NCI-H838	0.888	1.01	0.987	0.99	1.09	0.602	0.54	0.465	0.266	0.263	0.801	0.718	0.62	0.4	0.202	0.605	0.454	0.528	0.599	0.385
